Measured values reported in PubChem BioAssay (NCI).
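A five-concentration, 48-hour dose response in 96-well plates underlies each endpoint, interpolated linearly between surrounding concentrations. Definition used: TGI = concentration required for complete inhibition of growth.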

Experiments:
Test in all cases: NCI anticancer screen, dose series, 48 h
[1] = tested on: 786-0 renal
[2] = tested on: BT-549 breast
[3] = tested on: HCC-2998 colon
[4] = tested on: HCT-116 colon
[5] = tested on: KM12 colon
[6] = tested on: MALME-3M melanoma
[7] = tested on: MCF7 breast
[8] = tested on: MDA-MB-231 breast
[9] = tested on: MDA-MB-435
[10] = tested on: NCI-H522 lung
[11] = tested on: NCI/ADR-RES ovarian
[12] = tested on: OVCAR-4 ovarian
[13] = tested on: PC-3 prostate
[14] = tested on: SF-268 CNS
[15] = tested on: SF-539 CNS
[16] = tested on: SK-MEL-5 melanoma
[17] = tested on: SNB-75 CNS
[18] = tested on: TK-10 renal
[19] = tested on: CCRF-CEM leukemia
[20] = tested on: HOP-62 NSCLC

| Structure (SMILES) | TGI [1] [µM] | TGI [2] [µM] | TGI [3] [µM] | TGI [4] [µM] | TGI [5] [µM] | TGI [6] [µM] | TGI [7] [µM] | TGI [8] [µM] | TGI [9] [µM] | TGI [10] [µM] | TGI [11] [µM] | TGI [12] [µM] | TGI [13] [µM] | TGI [14] [µM] | TGI [15] [µM] | TGI [16] [µM] | TGI [17] [µM] | TGI [18] [µM] | TGI [19] [µM] | TGI [20] [µM] |
| --- | --- | --- | --- | --- | --- | --- | --- | --- | --- | --- | --- | --- | --- | --- | --- | --- | --- | --- | --- | --- |
| COc1ccc2[nH]c3c(c2c1)CC(=O)N1CCCC(CC3O)C1 (centres undefined) | > 100 | > 100 | > 100 | > 100 | > 100 | > 100 | > 100 | > 100 | > 100 | > 100 | > 100 | > 100 | > 100 | > 100 | > 100 | > 100 | > 100 | > 100 |  |  |
| O=C(O)CC(NC(=O)/C(=C/c1ccccc1)NC(=O)c1ccccc1)C(=O)O (centres undefined) | > 100 | > 100 | > 100 | > 100 | > 100 | > 100 | > 100 | > 100 | > 100 | > 100 | > 100 | > 100 | > 100 | > 100 | > 100 | > 100 | > 100 | > 100 | > 100 | > 100 |
| CC(O)CN1c2ccccc2Sc2ccccc21 (centres undefined) | > 100 | > 100 | > 100 | > 100 | > 100 | > 100 | > 100 | > 100 | > 100 | > 100 | > 100 | > 100 | > 100 | > 100 | > 100 | > 100 |  | > 100 | > 100 | > 100 |
| CCC/C(Cl)=N/OC(=O)Nc1cc(C(F)(F)F)ccc1OC | 18.6 | 28.8 | 30.6 | 22.8 | 33.5 | 7.34 | 27.7 | 27 | 26.3 | 2.99 | 33.1 | 9.75 | 29.7 | 29.8 | 28.6 | 19.9 | 28.5 | 32.5 | > 20.7 | 32.2 |
| CCOC(=O)C1(C#N)C(=O)c2cc[n+](CC[n+]3ccc4c(c3)C(=O)C(C#N)(C(=O)OCC)C4=O)cc2C1=O (centres undefined) | > 100 | > 100 | > 100 | > 100 | > 100 | > 100 | > 100 | > 100 | > 100 | > 100 | > 100 | > 100 | > 100 | > 100 | > 100 | 38.5 | > 100 |  | > 100 |  |
| CC(=O)Nc1cccc(N2C(=O)/C(=C\c3cccc(Oc4ccccc4)c3)S(=O)(=O)C2c2ccccc2)c1 (centres undefined) | > 100 | > 100 | > 100 | > 100 | > 100 | > 100 | > 100 | > 100 | > 100 | > 100 | > 100 | > 100 | > 100 |  | > 100 | > 100 | > 100 | > 100 | > 100 | > 100 |
| CC(C)CCNC(=O)C(CC(C)C)NC(=O)[C@H]1O[C@@H]1C(=O)O (some centres undefined) | > 100 | > 100 | > 100 | > 100 | > 100 | > 100 | > 100 | > 100 | > 100 | > 100 | > 100 | > 100 | > 100 | > 100 | > 100 | > 100 | > 100 |  | > 100 | > 100 |
| CC(=O)NC(Cc1ccccc1)NC(=O)O (centres undefined) | > 100 | > 100 | > 100 | > 100 | > 100 | > 100 | > 100 | > 100 | > 100 | > 100 | > 100 | > 100 | > 100 | > 100 | > 100 | > 100 | > 100 | > 100 | > 100 | > 100 |
| COc1ccc(NC(C)=O)cc1N1C(=O)/C(=C\c2ccccc2)SC1c1cc(OC)c(OC)c(OC)c1 (centres undefined) | 49.2 | > 100 | 47.4 | 29.5 | 35.8 | 56.2 | > 100 | > 100 | > 100 | 35.4 | 41 |  | > 100 | 43.9 | 45.5 | 37 |  | > 100 | > 100 | > 100 |
| Cn1c(=O)c2nc3c(=O)n(C)c(=O)n(CC(N)=O)c3nc2n(C)c1=O | > 100 | > 100 | > 100 | > 100 | > 100 | > 100 | > 100 | > 100 | > 100 | > 100 | > 100 | > 100 | > 100 | > 100 | > 100 | > 100 | > 100 | > 100 | > 100 | > 100 |
| O/N=C(/CC(O)(C(F)(F)F)C(F)(F)F)c1ccccc1 | > 10 | > 10 | > 10 | > 10 | > 10 | > 10 | > 10 | > 10 | > 10 | > 10 | > 10 | > 10 | > 10 | > 10 | > 10 | > 10 | > 10 | > 10 | > 10 | > 10 |
| O=S1(=O)c2ccccc2C(Nc2ccccc2)N1c1ccccc1 (centres undefined) | > 100 | > 100 | > 100 | > 100 | > 100 | > 100 | > 100 | > 100 | > 100 | 67.9 | > 100 | > 100 | > 100 | > 100 | > 100 | > 100 | > 100 | > 100 | > 100 | > 100 |
| N#CC1=C2SCCN2C(=O)C(C#N)C12CCCCC2 (centres undefined) | > 100 | > 100 | > 100 | > 100 | > 100 | > 100 | > 100 | > 100 | > 100 | > 100 | > 100 | > 100 | > 100 | > 100 | > 100 | > 100 | > 100 | > 100 | > 100 | > 100 |
| Oc1[nH]c(=S)[nH]c1/C=C1/C(c2ccccc2)=Nc2ccccc21 | 28.4 | 28.6 | 36.9 | 27.5 | 29.3 | 26.4 | 28.5 | 33.5 | 26.7 | 26.3 | 51.7 | 57.4 | 25.6 | > 100 | 31.2 | 25.8 | 28.8 | 44.5 |  | 29.1 |
| Cc1c2c(nc3ccccc13)C(=O)c1cccnc1C2=O | > 100 | > 100 | > 100 | 18.8 | > 100 | 3.56 | 30.1 | > 100 | 3.2 | 47.8 | > 100 | > 100 | 73.1 | > 100 | 54.2 | 1.48 | 91.7 | > 100 | > 100 | > 100 |
| C=C1[C@H](OCC(C)C)[C@@H](O)[C@@H](OC(=O)c2cccnc2)C(C)(C)/C=C/[C@H](C)[C@H](OC(C)=O)[C@@]2(O)C[C@@](C)(OC(C)=O)[C@H](OC(=O)c3ccccc3)[C@@H]2[C@H]1OC(C)=O | > 5 | > 4.23 | 1.59 | > 5 | > 2.97 | 1.46 | > 5 | > 5 | > 3.97 | 2.54 | > 3.25 | > 5 | > 5 | > 3.24 | 1.58 | > 5 | > 2.87 | > 5 | > 2.82 | 2.26 |
| O=[N+]([O-])c1ccc(N/N=C2/CC3=C2CCCCCCCCCC3)c([N+](=O)[O-])c1 | > 100 | > 100 | > 100 | > 100 | > 100 | > 100 | > 100 | > 100 | > 100 | > 100 | > 100 | > 100 | > 100 | > 100 |  | > 100 | > 100 | > 100 | > 100 | > 100 |
| C[Si](C)(C)c1ccc(-c2c3ccc(-c4cc(Br)cc(Br)c4)nc3nc3nc(-c4cc(Br)cc(Br)c4)ccc23)cc1 | > 100 | > 100 | > 100 | > 100 | > 100 | > 100 | > 100 | > 100 | > 100 | > 100 | > 100 | > 100 | > 100 | > 100 |  | > 100 | > 100 | > 100 |  | > 100 |
| O=C(NCCC1CN(C(=O)OCc2ccccc2)c2ccccc21)OCc1ccccc1 (centres undefined) | > 100 | > 100 | > 100 | > 100 | > 100 | > 100 | > 100 | > 100 | > 100 | > 100 | > 100 | > 100 | > 100 | > 100 |  | > 100 | > 100 | > 100 |  | > 100 |
| CCC1(CC)C(=O)N(C(=O)c2ccccc2)N(C(=O)c2ccc(Cl)cc2)C1=O | > 75 | > 75 | > 75 | > 75 | > 75 | > 75 | > 75 | > 75 | > 75 | > 75 | > 75 | > 75 | > 75 | > 75 |  | > 75 | > 75 | > 75 | 51.3 | > 75 |
| COc1ccc2c(c1)-c1c(c3cc(OC)ccc3n1CCCN(C)C)CC2 | > 100 | 32.2 | 10.2 | 51.1 | 21.8 | 5.47 | 26.5 | 30.5 | 15.1 | 25.7 | 31.4 | 30.8 | 25.3 | 26.2 |  | 8.29 | 13.9 | 39.7 | 14.1 | 29.2 |
| CCOC(=O)CC1(Cc2ccc(OCc3ccccc3)cc2)C(=O)OC(c2ccccc2)N1C(=O)c1ccccc1 (centres undefined) | > 100 | > 100 | 84.7 | > 100 | > 100 | > 100 | > 100 | > 100 | > 100 | > 100 | > 100 | > 100 | > 100 | > 100 | > 100 | > 100 |  | > 100 | > 100 | > 100 |
| CCOC(=O)c1ccc(C(=O)n2ccnc2)[nH]1 | > 100 | > 100 | > 100 | > 100 | > 100 | > 100 | > 100 | > 100 | > 100 | > 100 | > 100 | > 100 | > 100 | > 100 |  | > 100 | > 100 | > 100 | > 100 | > 100 |
| C/C(N)=C/C(=O)c1[nH]c(C(=O)O)cc1C1CCN(Cc2ccccc2)C1=O (centres undefined) | 85 | 74.6 | > 100 | 63.8 | > 100 | 50.2 | 95.8 | > 100 | > 100 | 49.2 | 51.6 | > 100 | > 100 | 60.8 |  | 33.8 | 88.4 | > 100 |  | 42.8 |
